From patent US20060142247A1, “Tricyclic heterocycles” (priority 2004, published 2006) come the findings set out here.

pIC50: −log10 of the molar value.

As usually defined, the pIC50 is −log10 of the IC50, conventionally taken in molar units.

For the assay, the target named is T1, Aurora A (Homo sapiens, UniProt O14965).
T1 construct: C-terminally Histidine4 (His4)-tagged Aurora A full-length protein; His4 (C)
T1 sequence (O14965 1-403): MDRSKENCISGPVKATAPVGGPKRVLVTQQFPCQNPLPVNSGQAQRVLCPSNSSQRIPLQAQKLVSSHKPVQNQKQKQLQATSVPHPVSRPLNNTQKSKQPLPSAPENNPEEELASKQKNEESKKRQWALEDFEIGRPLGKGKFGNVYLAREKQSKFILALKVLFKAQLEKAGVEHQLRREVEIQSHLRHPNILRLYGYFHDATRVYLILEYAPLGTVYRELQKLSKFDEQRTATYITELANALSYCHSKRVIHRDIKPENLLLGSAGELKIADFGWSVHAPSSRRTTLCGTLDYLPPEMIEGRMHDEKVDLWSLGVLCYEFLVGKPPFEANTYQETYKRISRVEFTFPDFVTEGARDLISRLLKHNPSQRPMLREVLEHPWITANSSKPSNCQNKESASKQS
Kind of assay: IC50 determination for inhibitors of Aurora A (96 MTP-ELISA). It counts as biochemical. Conditions: His4-tagged full-length Aurora A 250 ng/ml, PKB-GSK2 200 nM, ATP 4 μM, 90 min room temperature, read-out: IC50 Aurora A kinase inhibition. The procedure: Aurora A is a serine threonine kinase involved in spindle assembly and chromosome segregation. The assay is a typically ELISA-type assay where biotinylated substrate (PKB-GSK2) is phosphorylated. Phosphorylation is detected by peroxidase (POD) labelled polyclonal antibody (PAK<M-Ig>S-IgG-POD) and phosphopeptide monoclonal antibody (Mab) (MAK<P-GSK>M-27E5-IgG). The assay is validated for IC50-determination.
Assay plates: 96-well polystyrene plates, streptavidin-coated,
Samples: 10 mM in dimethylsulfoxide (DMSO)
Aurora A-His-4: C-terminally Histidine4 (His4)-tagged Aurora A full-length protein, stock solution 0.7 mg/ml, final conc.: 250 ng/ml
PKB-GSK2: biotinylated peptide derived from human GSK3-alpha sequence (Biotin-SGRARTSSFAEPGG-CONH2), stock solution 600 μM, final conc.: 200 nM
PAK<M-Ig>S-IgG-POD: Anti-mouse IgG, horse radish peroxidase(HRP)-linked Antibody, diluted in 3% BSA/PBS-T (1:10000), (Cell Signaling, Cat. No.: 7076)
MAK<P-GSK>M-27E5-IgG: Phospho-GSK-3-alpha (Ser 21) (27E5) Monoclonal Antibody, stock solution 1.85 mg/ml, diluted in 3% BSA/PBS-T (1:6000), final conc.: 0.31 μg/ml, (Cell Signaling, Cat. No.: 9337B)
ATP: Adenosine-5′-triphosphate 1 mM, diluted in kinase buffer, (Roche Diagnostics GmbH, Cat. No.: 127531-001,), final conc.: 4 μM
TRIS: 2-Amino-2-hydroxymethyl-1,3-propoanediol (“tris-(hydroxymethyl)-aminomethane”) (MERCK, Cat. No.: 108382.2500)
BSA: Bovine Serum Albumin Fraction V, fatty acid free (Roche Diagnostics GmbH, Cat. No. 9100221)
EDTA Titriplex III (di-Sodium-EDTA di-Hydrate), 120 mM, (MERCK, Cat. No.: 1.08418.1000)
ABTS buffer: ABTS (2,2′-azino-bis(3-ethylbenzthiazoline-6-sulfonic acid)) 16.7 mg/ml (Roche Diagnostics GmbH, Cat. No.: 1204530) • ABTS tablets: dissolve one ABTS tablet in 50 ml of working solution (ABTS buffer) (Roche Diagnostics GmbH, Cat. No.: 1112422 ) • Tween 20: Polysorbat 20 (Roche Diagnostics GmbH, Cat. No.: 10006394-001) • DTT: 1,4-Dithiothreitol (Roche Diagnostics GmbH, Cat. No.: 197777) • MgCl2×6H2O MERCK, Cat. No.: 105833.1000 • Kinase buffer: 50 mM TRIS, 10 mM MgCl2, 1 mM DTT, 0.1% Tween 20, pH 7.8 PBS-T (=Wash buffer) (PBS-T)10 g/l PBS(Phosphate buffered saline) with 0.033% Tween 20 • 3% BSA/PBS-T: 3% BSA dissolved in PBS-T Method
This assay is performed in 96-well format for IC50 determination with 5 samples (each with 8 concentrations by twofold testing), 100 μl incubation volume and the following plate layout:
S samples, with ATP, 1% DMSO, final conc.: a=100 μM, b=20 μM, c=4 μM, d=0.8 μM, e=0.16 μM, f=0.032 μM, g=0.0064 μM, h=0.00128 μM Step/Action • (1) Sample preparation: add 24 μl per well samples (descending sequence) diluted in kinase buffer to assay plate (final conc. for DMSO 1%). • 2. Add directly 16 μl Aurora-A-his-4 diluted in kinase buffer to assay plate. • 3. Add directly 40 μl per well PKB-GSK2/ATP mixture to assay plate, (final conc.: Aurora A=250 ng/ml, GSK2=200 nM, ATP=4 μM). Negative control: without ATP. • 4. Incubate assay plate for exactly 90 min at room temperature. • 5. Stop reaction by adding 20 μl EDTA in all wells. • 6. Wash assay plate 3× with 200 μl washing buffer per well. • 7. Add 100 μl MAK<P-GSK>M27E5-IgG (1:10000) and PAK<M-Ig>S-IgG-POD (1:6000) dissolved in 3% BSA/PBS-T to assay plate per well. • 8. Incubate assay plate for 60 min at room temperature. • 9. Wash assay plate 3× with 200 μl washing buffer per well • 10. Add 100 μl ABTS solution to assay plate per well, incubate for approx. 4 min at RT on MTP shaker. • 11. Measure absorption at 405/492 nm. • 12. Calculate % inhibition as: (1−(Esample−ENC)/(EPC−ENC))×100 1)
13. Calculate IC50 using a non-linear curve fit (XLfit software (ID Business Solution Ltd., Guilford, Surrey, UK))
For the compound `CC1(C)C(=O)N(CC(=O)NCc2ccccc2)c2cc3[nH]c(-c4n[nH]c5ccccc45)nc3cc21` [Example 39, N-Benzyl-2-[2-(1H-indazol-3-yl)-7,7-dimethyl-6-oxo-6,7-dihydro-3H-imidazo[4,5-f]indol-5-yl]-acetamide], the pIC50 is 7.00 to 9.00. As for `CC1(C)C(=O)N(CC(=O)N2CCOCC2)c2cc3[nH]c(-c4n[nH]c5ccccc45)nc3cc21` [Example 40, 2-(1H-Indazol-3-yl)-7,7-dimethyl-5-(2-morpholin-4-yl-2-oxo-ethyl)-5,7-dihydro-3H-imidazo[4,5-f]indol-6-one], the figure is 7.00 to 9.00.

As for `CC1(C)C(=O)N(CC(=O)Nc2ccccc2)c2cc3[nH]c(-c4n[nH]c5ccccc45)nc3cc21` [Example 43, 2-[2-(1H-Indazol-3-yl)-7,7-dimethyl-6-oxo-6,7-dihydro-3H-imidazo[4,5-f]indol-5-yl]-N-phenyl-acetamide], the pIC50 is 7.00 to 9.00. To `CC1(C)C(=O)N(CC(=O)NO)c2cc3[nH]c(-c4n[nH]c5ccccc45)nc3cc21` [Example 49, N-Hydroxy-2-[2-(1H-indazol-3-yl)-7,7-dimethyl-6-oxo-6,7-dihydro-3H-imidazo[4,5-f]indol-5-yl]-acetamide] belongs 7.00 to 9.00. To `CC1(C)C(=O)N(CCN)c2cc3[nH]c(-c4n[nH]c5ccccc45)nc3cc21` [Example 52, 5-(2-Amino-ethyl)-2-(1H-indazol-3-yl)-7,7-dimethyl-5,7-dihydro-3H-imidazo[4,5-f]indol-6-one] belongs 7.00 to 9.00.
